Patent US11655246B2, “Aminothiazole compounds as inhibitors of CTPS1” (STEP PHARMA S.A.S., priority 2017, dated 2023)
Where “and” joins values, the source holds several entries; their conditions need not be identical. Identical values can stand only once. Counter-ions that a name gives are not always drawn. Like-named read-outs stand apart in the source and are kept apart here.

Biological target: T1, human CTPS1 (Homo sapiens, UniProt P17812)
T1 construct: purchased Proteros biostructures GmbH
T1 sequence (P17812 1-591): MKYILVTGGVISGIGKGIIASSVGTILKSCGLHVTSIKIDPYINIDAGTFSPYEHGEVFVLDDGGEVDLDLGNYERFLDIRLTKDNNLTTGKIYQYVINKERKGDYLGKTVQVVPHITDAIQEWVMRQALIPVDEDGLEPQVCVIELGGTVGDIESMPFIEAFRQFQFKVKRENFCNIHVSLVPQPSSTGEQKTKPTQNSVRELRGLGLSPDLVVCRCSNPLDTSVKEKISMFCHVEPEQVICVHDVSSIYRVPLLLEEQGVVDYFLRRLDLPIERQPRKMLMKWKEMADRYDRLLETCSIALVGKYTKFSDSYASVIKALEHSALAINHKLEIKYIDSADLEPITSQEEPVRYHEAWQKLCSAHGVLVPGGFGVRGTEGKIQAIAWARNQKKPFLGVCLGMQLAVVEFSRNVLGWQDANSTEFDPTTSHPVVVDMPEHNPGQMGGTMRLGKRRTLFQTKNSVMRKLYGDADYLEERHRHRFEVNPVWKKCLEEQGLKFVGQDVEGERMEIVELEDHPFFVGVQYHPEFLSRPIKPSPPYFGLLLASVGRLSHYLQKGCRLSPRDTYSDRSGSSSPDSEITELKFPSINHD
Assay: Human CTPS1 enzyme inhibition (ADP-Glo Max assay)
Assay type: biochemical
Details: read-out: CTPS1 (Human CTPS1 Enzyme Inhibition data grouped by potency range)
Description: The enzyme inhibitory activities of compounds invented against the target of interest were determined using the ADP-Glo™ Max assay (Promega, UK). Assays for human CTPS1 were performed in 1× assay buffer containing 50 mM Tris, 10 mM MgCl2, 0.01% Tween-20, pH to 8.0 accordingly. Finally, immediately before use, L-cysteine was added to the 1× assay buffer to a final concentration of 2 mM. All reagents are from Sigma-Aldrich unless specified otherwise.
3× human CTPS1 protein was prepared in 1× assay buffer to the final working protein concentration required for the reaction. A 2 uL volume per well of 3× human CTPS1 protein was mixed with 2 uL per well of 3× test compound (compound prepared in 1× assay buffer to an appropriate final 3× compound concentration respective to the concentration response curve designed for the compounds under test) for 10 minutes at 25° C. […] ADP-Glo™ Max reagent was added for 60 minutes (6 uL per well) and subsequently ADP-Glo™ Max development reagent was added for 60 minutes (12 uL per well) prior to signal detection in a microplate reader (EnVision® Multilabel Reader, Perkin Elmer). Following each reagent addition over the course of the assay, assay plates were pulse centrifuged for 30 seconds at 500 rpm.
In all cases, the enzyme converts ATP to ADP and the ADP-Glo™ Max reagent subsequently depletes any remaining endogenous ATP in the reaction system. The ADP-Glo™ Max detection reagent converts the ADP that has been enzymatically produced back into ATP and using ATP as a substrate together with luciferin for the enzyme luciferase, light is generated which produces a detectable luminescence. […] The percentage inhibition produced by each concentration of compound was calculated using the equation shown below: […]

[1] = Table 18, additional potency data, 25° C.

Compound	IC50 [1]	IC50 (Table 17, 25° C.)
Cc1sc(NS(=O)(=O)C2CC2)nc1C(C)(C)C(=O)Nc1ccc(-c2cncc(C(F)(F)F)n2)cc1F [T354, 2-(2-(cyclopropanesulfonamido)-5-methylthiazol-4-yl)-N-(2-fluoro-4-(6-(trifluoromethyl)pyrazin-2-yl)phenyl)-2-methylpropanamide]	0.1 to 1 µM	
CCC(C(=O)Nc1ccc(-c2cncc(F)c2)cc1)c1csc(NS(=O)(=O)C2CC2)n1 (single isomer, unassigned) [T72]		< 0.1 µM
CCC(C(=O)Nc1ccc(-c2cncc(C3CC3)n2)cc1)c1csc(NS(=O)(=O)C2CC2)n1 (stereo not drawn) [T291]		< 0.1 µM
CCC(C(=O)Nc1ccc(-c2cccnc2)cc1)c1csc(NS(=O)(=O)C2CC2)n1 (racemic) [T5, 2-(2-(cyclopropanesulfonamido)thiazol-4-yl)-N-(4-(pyridin-3-yl)phenyl)butanamide]		< 0.1 µM
Cc1cc(NC(=O)C(C)(C)c2csc(NS(=O)(=O)C3CC3)n2)c(F)cc1-c1cncc(Cl)c1 [T352, N-(4-(5-chloropyridin-3-yl)-2-fluoro-5-methylphenyl)-2-(2-(cyclopropanesulfonamido)thiazol-4-yl)-2-methylpropanamide]	0.1 to 1 µM	
CCCOc1cncc(-c2ccc(NC(=O)C(CC)c3csc(NS(=O)(=O)C4CC4)n3)nc2)n1 (stereo not drawn) [T173]		< 0.1 µM
CCC(C(=O)Nc1ccc(-c2cncc(C(F)(F)F)c2)cc1F)c1csc(NS(=O)(=O)C2CC2)n1 (single isomer, unassigned) [T415, 2-(2-(cyclopropanesulfonamido)thiazol-4-yl)-N-(2-fluoro-4-(5-(trifluoromethyl)pyridin-3-yl)phenyl)butanamide]	0.1 to 1 µM	
CC(C)OC(C(=O)Nc1ccc(-c2cncc(Cl)c2)cc1)c1csc(NS(=O)(=O)C2CC2)n1 (stereo not drawn) [T58]		< 0.1 µM
CCC(C(=O)Nc1ccc(-c2cncc(C(F)(F)F)n2)cc1)c1csc(NS(=O)(=O)C2CC2)n1 (stereo not drawn) [T73]		< 0.1 µM
CCC(C(=O)Nc1ccc(-c2cccnc2)cc1F)c1csc(NS(=O)(=O)C2CC2)n1 (stereo not drawn) [T201]		< 0.1 µM
CCOc1cncc(-c2ccc(NC(=O)C(c3csc(NS(=O)(=O)C4CC4)n3)N(C)C)cc2)n1 (stereo not drawn) [T328, 2-(2-(cyclopropanesulfonamido)thiazol-4-yl)-2-(dimethylamino)-N-(4-(6-ethoxypyrazin-2-yl)phenyl)acetamide]	< 0.1 µM	
CCC(C(=O)Nc1ccc(-c2cncc(OC(F)F)c2)cc1F)c1csc(NS(=O)(=O)C2CC2)n1 (stereo not drawn) [T209]		< 0.1 µM
Cc1c(NC(=O)C(C)(C)c2csc(NS(=O)(=O)C3CC3)n2)ccc(-c2cncc(Cl)c2)c1C [T365, N-(4-(5-chloropyridin-3-yl)-2,3-dimethylphenyl)-2-(2-(cyclopropanesulfonamido)thiazol-4-yl)-2-methylpropanamide]	< 0.1 µM	
COc1cc(-c2cncc(Cl)c2)c(F)cc1NC(=O)C(C)(C)c1csc(NS(=O)(=O)C2CC2)n1 [T369, N-(4-(5-chloropyridin-3-yl)-5-fluoro-2-methoxyphenyl)-2-(2-(cyclopropanesulfonamido)thiazol-4-yl)-2-methylpropanamide]	0.1 to 1 µM	
CC(C)(C(=O)Nc1ccc(-c2cncc(O)n2)cc1)c1csc(NS(=O)(=O)C2CC2)n1 [T379, 2-(2-(cyclopropanesulfonamido)thiazol-4-yl)-N-(4-(6-hydroxypyrazin-2-yl)phenyl)-2-methylpropanamide]	1 to 10 µM	
CCOc1cncc(-c2ccc(NC(=O)C(C)(C)c3csc(NS(=O)(=O)C4CCCC4)n3)cc2)n1 [T335, 2-(2-(cyclopentanesulfonamido)thiazol-4-yl)-N-(4-(6-ethoxypyrazin-2-yl)phenyl)-2-methylpropanamide]	0.1 to 1 µM	
CCOc1cncc(-c2ccc(NC(=O)C(CCO)c3csc(NS(=O)(=O)C4CC4)n3)cc2)n1 (stereo not drawn) [T329, 2-(2-(cyclopropanesulfonamido)thiazol-4-yl)-N-(4-(6-ethoxypyrazin-2-yl)phenyl)-4-hydroxybutanamide]	< 0.1 µM	
CCC(C(=O)Nc1ccc(-c2cncc(OCC(F)(F)F)c2)cc1F)c1csc(NS(=O)(=O)C2CC2)n1 (stereo not drawn) [T212]		< 0.1 µM

Compound	IC50 [1]	IC50 (Table 17, 25° C.)
CCOc1cncc(-c2ccc(NC(=O)C(NC(=O)OC(C)(C)C)c3csc(NS(=O)(=O)C4CC4)n3)cc2)n1 (stereo not drawn) [T407, tert-butyl (1-(2-(cyclopropanesulfonamido)thiazol-4-yl)-2-((4-(6-ethoxypyrazin-2-yl)phenyl)amino)-2-oxoethyl)carbamate]	< 0.1 µM	
CC(C)(C(=O)Nc1ccc(-c2cncc(C#N)c2)cc1C(F)(F)F)c1csc(NS(=O)(=O)C2CC2)n1 [T344, N-(4-(5-cyanopyridin-3-yl)-2-(trifluoromethyl)phenyl)-2-(2-(cyclopropanesulfonamido)thiazol-4-yl)-2-methylpropanamide]	< 0.1 µM	
CC(C)(C(=O)Nc1c(F)cc(-c2cncc(Cl)c2)cc1F)c1csc(NS(=O)(=O)C2CC2)n1 [T351, N-(4-(5-chloropyridin-3-yl)-2,6-difluorophenyl)-2-(2-(cyclopropanesulfonamido)thiazol-4-yl)-2-methylpropanamide]	0.1 to 1 µM and < 0.1 µM	
CC(C)(O)c1cncc(-c2ccc(NC(=O)C(C)(C)c3csc(NS(=O)(=O)C4CC4)n3)nc2)n1 [T338, 2-(2-(cyclopropanesulfonamido)thiazol-4-yl)-N-(5-(6-(2-hydroxypropan-2-yl)pyrazin-2-yl)pyridin-2-yl)-2-methylpropanamide]	1 to 10 µM	
COCCC(C(=O)Nc1ccc(-c2cncc(F)c2)cc1)c1csc(NS(=O)(=O)C2CC2)n1 (stereo not drawn) [T191]		< 0.1 µM
CCOc1cncc(-c2ccc(NC(=O)C(CC)c3csc(NS(=O)(=O)C4CC4)n3)cc2)c1 (stereo not drawn) [T96]		< 0.1 µM
CC(C)c1cc(-c2cncc(C#N)c2)ccc1NC(=O)C(C)(C)c1csc(NS(=O)(=O)C2CC2)n1 [T360, N-(4-(5-cyanopyridin-3-yl)-2-isopropylphenyl)-2-(2-(cyclopropanesulfonamido)thiazol-4-yl)-2-methylpropanamide]	0.1 to 1 µM	
CCS(=O)(=O)Nc1nc(C(C)(C)C(=O)Nc2ccc(-c3cncc(F)c3)cc2)cs1 [T385, 2-(2-(ethylsulfonamido)thiazol-4-yl)-N-(4-(5-fluoropyridin-3-yl)phenyl)-2-methylpropanamide]	< 0.1 µM	
CCC(C(=O)Nc1ccc(-c2cncc(F)c2)cc1F)c1csc(NS(=O)(=O)C2CC2)n1 (stereo not drawn) [T200]		< 0.1 µM
CCOc1cncc(-c2ccc(NC(=O)C(CC)c3csc(NS(=O)(=O)C4CC4)n3)c(F)c2)n1 (stereo not drawn) [T198]		< 0.1 µM
CCC(C(=O)Nc1ccc(-c2cncc(Cl)c2)cc1)c1csc(NS(=O)(=O)C2CC2)n1 (single isomer, unassigned) [T9, N-(4-(5-chloropyridin-3-yl)phenyl)-2-(2-(cyclopropanesulfonamido)thiazol-4-yl)butanamide.HCl]		< 0.1 µM
COCCC(C(=O)Nc1ccc(-c2cncc(OC)n2)cc1)c1csc(NS(=O)(=O)C2CC2)n1 (stereo not drawn) [T190]		< 0.1 µM
CCC(C(=O)Nc1ccc(-c2cncc(C(F)(F)F)n2)cc1)c1csc(NS(=O)(=O)C2CC2)n1 (single isomer, unassigned) [T106]		< 0.1 µM
CCC(C(=O)Nc1ccc(-c2cncc(OC(F)F)c2)cc1)c1csc(NS(=O)(=O)C2CC2)n1 (stereo not drawn) [T210]		< 0.1 µM
CC(C)(C(=O)Nc1ccc(-c2cnccn2)cc1F)c1csc(NS(=O)(=O)C2CC2)n1 [T274]		< 0.1 µM
CCS(=O)(=O)Nc1nc(C(C)(C)C(=O)Nc2ccc(-c3cccnc3)cc2)cs1 [T386, 2-(2-(ethylsulfonamido)thiazol-4-yl)-2-methyl-N-(4-(pyridin-3-yl)phenyl)propanamide]	0.1 to 1 µM	
CCC(C(=O)Nc1ccc(-c2cncc(C(C)(C)OC)n2)cc1)c1csc(NS(=O)(=O)C2CC2)n1 (stereo not drawn) [T406, 2-(2-(cyclopropanesulfonamido)thiazol-4-yl)-N-(4-(6-(2-methoxypropan-2-yl)pyrazin-2-yl)phenyl)butanamide]	0.1 to 1 µM	
CC(C)(C(=O)Nc1ncc(-c2cncc(C#N)c2)cn1)c1csc(NS(=O)(=O)C2CC2)n1 [T20, N-(5-(5-cyanopyridin-3-yl)pyrimidin-2-yl)-2-(2-(cyclopropanesulfonamido)thiazol-4-yl)-2-methylpropanamide]		0.1 to 1 µM
